Common to all, as to assay type: cell-based
Test [1] relates to SKOV3 CR cells. Description: combinational high throughput screen with cisplatin. The settings on record: in combination with DMSO, 1 μM cisplatin or 20 μM cisplatin. An excerpt: A combinational HTS using multiple compound libraries including NPC (NIH Pharmaceutical Collection), MIPE (Mechanism interrogation plate), and LOPAC (The Library of Pharmacologically Active Compounds) was used to identify compounds that can overcome cisplatin resistance of SKOV3 CR cells (FIG. 5). The library of pharmacologically active compounds (LOPAC®) of 1280 compounds (1) was purchased from Sigma. The NCGC Pharmaceutical Collection (NPC) of 2816 compounds and mechanism interrogation plate (MIPE) library of 1920 compounds were previously described. Bromberg, J Clin Invest 109: 1139-1142 (2002) and Buchert et al., Oncogene 35: 939-951 (2016). Compounds from all libraries were obtained as powder and dissolved in dimethyl sulfoxide (DMSO) […]. Combinational HTS was performed as previously described. Szasz et al., Oncotarget 7: 49322-49333 (2016). A total of 6,016 compounds were screened. […] In the second screen, these 112 compounds were selected for a dose-response confirmation screen in combination with DMSO, 1 μM cisplatin or 20 μM cisplatin (FIG. 5).

The subject of test [2] is SKOV3 CR cells. Briefly: clonogenic (colony formation) assay. Particulars: 0.1 μM LY2784544 and 0.5 μM cisplatin, 14 days. As for the experimental part: FIG. 16 is an illustration showing representative colony formation (A) and bar graphs ((B)-(C)). SKOV3 parental and resistant cells were treated with 0.1 μM LY2784544 and 0.5 μM cisplatin for 14 days and quantification data of colony formation assays ((B) and (C)). Colonies in (A) were stained with crystal violet. Data are represented as mean±SD from three independent experiments performed in triplicate. *p<0.05, **p<0.01, ***p<0.001.
Clonogenic assays were conducted to evaluate the cell survival of SKOV3 and SKOV3 CR cells in response to cisplatin, LY2784544, or both cisplatin and LY2784544. […] Currently, carboplatin-based chemotherapy becomes a universal choice. The synergistic effect of LY2784544 with carboplatin on SKOV3 CR cells was also examined.

The test system of another test is IGROV1 cells. Briefly: cell proliferation assay, IGROV1 parental cells. Particulars: 5 days. An excerpt:
FIG. 60 is a line graph showing the proliferation of IGROV1 parental and IGROV1 CR cells treated with increasing concentrations of cisplatin for 5 days (left). Data are represented as mean±SD from three independent experiments performed in triplicate. Indicated IC50 values represent the mean of two independent experiments performed in triplicate.
Using a similar approach as described in FIG. 1, another cisplatin resistant ovarian cancer cell line IGROV1 CR was raised from its cisplatin sensitive parental cell IGROV1 cells. […] The cell proliferation of IGROV1 CR cells treated with cisplatin, LY2784544 or both LY2784544 and cisplatin was examined.

In test [3] the test system is reactive oxygen species (ROS). Briefly: ROS production (CellROX Orange reagent). The settings on record: SKOV3 cells, YCG063 20 μM, cisplatin 1 μM, 24 hr. As to the method: FIG. 69 are bar graphs ((A)-(C) and (E)-(F)) and illustrations ((D) and (G)) showing that reactive oxygen species (ROS) induces IL-11 expression. (A) is a bar graph showing quantification of ROS production in SKOV3 and SKOV3 CR cells. Data are represented as means±SD from three independent experiments. **p<0.01. Scale bar, 100 μm. (B) is a bar graph showing quantification of ROS production in SKOV3 CR cells after treatment with the ROS inhibitor YCG063 at 20 μM for 24 hr. Data are represented as means±SD from three independent experiments. ***p<0.001. (C) is a bar graph showing IL-11 levels measured by ELISA in the medium of SKOV3 CR cells treated with YCG063 at 20 μM for 24 hr. Data are represented as mean±SD from three independent experiments performed in triplicate. ***p<0.001. […] (E) is a bar graph showing quantification of ROS production in SKOV3 cells after treated with the ROS inhibitor YCG063 (20 μM), cisplatin (1 μM), or both for 24 hr. […] (F) is a bar graph showing IL-11 levels measured by ELISA in SKOV3 cells treated with YCG063 (20 μM), cisplatin (1 μM) or both for 24 hr. […]
DNA damage induces generation of reactive oxygen species (ROS). […] ROS was detected with a live cell-permeable, fluorophore CellROX Orange reagent (Thermo Fisher Scientific) according to the manufacturer's instructions. […] ROS intensity was analyzed using ImageJ (NIH) software. […]

SMILES strings stand for the structures. pIC50: −log10 of the molar value.

In the case of `Cc1cc(Nc2cc(CN3CCOCC3)c3nc(C)c(Cc4ccc(Cl)cc4F)n3n2)n[nH]1` [LY2784544], the “sensitization to cisplatin in second (dose-response confirmation) screen” value in the test on SKOV3 CR cells [1] was “significantly sensitize SKOV3 CR cells to cisplatin”. Also, the “cell survival, combined treatment compared to cisplatin treatment” value in the test on SKOV3 CR cells [2] is reported as “significantly reduced the survival of SKOV3 CR”.

What is called pIC50 is −log10 of the IC50, conventionally taken in molar units. For `N.N.[Cl][Pt][Cl]` [cisplatin], the pIC50 in the test on IGROV1 cells is 6.29. The ROS production entry in test [3] is recorded as “activated ROS production”.

Values taken from patent US20200031920A1, “Combination Therapy for Treating Cancer” (The George Washington University, priority 2017, published 2020).
